US5085992A, “Microbial transformation process for antihypertensive products” (Merck & Co., Inc., priority 1991, dated 1992)

Target: T1, Angiotensin II (A II) receptor (Oryctolagus cuniculus, UniProt P34976)
T1 construct: tissue Pel-Freeze Biologicals; host or cells: rabbit aorta, membrane preparation (frozen aortae)
T1 sequence (P34976 1-359): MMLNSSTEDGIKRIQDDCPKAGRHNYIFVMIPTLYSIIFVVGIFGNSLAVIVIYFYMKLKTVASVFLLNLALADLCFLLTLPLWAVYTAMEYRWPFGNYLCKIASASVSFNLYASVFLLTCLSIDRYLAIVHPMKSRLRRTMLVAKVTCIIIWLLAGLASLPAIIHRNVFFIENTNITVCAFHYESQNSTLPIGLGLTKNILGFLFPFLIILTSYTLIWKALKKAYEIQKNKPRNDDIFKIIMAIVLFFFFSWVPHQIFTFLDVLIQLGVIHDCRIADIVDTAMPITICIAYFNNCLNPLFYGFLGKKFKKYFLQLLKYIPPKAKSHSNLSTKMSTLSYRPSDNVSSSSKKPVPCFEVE
Test: Receptor binding assay using rabbit aortae membrane preparation ("IC50" assay; displacement of 125I-Sar1 Ile8-angiotensin II)
Settings: membrane preparation derived from rabbit aortae; 37° C., 90 minutes; read-out: inhibitory concentration (IC50) giving 50% displacement of the total specifically bound 125I-Sar1 Ile8-angiotensin II
Method: This assay is also referred to herein as the "IC 50 "assay.
RECEPTOR BINDING ASSAY USING RABBIT AORTAE MEMBRANE PREPARATION
Three frozen rabbit aortae (obtained from Pel-Freeze Biologicals) were suspended in 5 mM Tris-0.25 M Sucrose, pH 7.4 buffer (50 ml) homogenized, and then centifuged. The mixture was filtered through a cheesecloth and the supernatant was centrifuged for 30 minutes at 20,000 rpm at 4° C. The pellet thus obtained was resuspended in 30 ml of 50 mM Tris-5 mM MgCl2 buffer containing 0.2% Bovine Serum Albumin and 0.2 mg/ml Bacitration and the suspension was used for 100 assay tubes. Samples tested for screening were done in duplicate. To the membrane preparation (0.25 ml) there was added ^125 I-Sar^1 Ile^8 -angiotensin II [obtained from New England Nuclear] (10 ul; 20,000 cpm) with or without the test sample and the mixture was incubated at 37° C. for 90 minutes. The mixture was then diluted with ice-cold 50 mM Tris-0.9% NaCl, pH 7.4 (4 ml) and filtered through a glass fiber filter (GF/B Whatman 2.4" diameter). The filter was soaked in scintillation cocktail (10 ml) and counted for radioactivity using Packard 2660 Tricarb liquid scintillation counter. […]

CCc1nc2c(C)cc(C)nc2n1Cc1ccc(-c2ccccc2-c2nnn([C@@H]3O[C@H](C(=O)O)[C@@H](O)[C@H](O)[C@H]3O)n2)cc1 [compound (I)]
IC50: < 50 µM
